Experimental data: US8975015B2, “Antimicrobial compounds” (priority 2009, dated 2015)
Converted amounts (≈) assume the structure as drawn.

How the values were obtained:
Test in all cases: microbe, parasite or virus in culture
[1] = tested on: non-replicating TB; assay type: cell-based, Mycobacterium tuberculosis
[2] = tested on: strains of TB that are resistant to Kanamycin; assay type: cell-based; conditions: Mycobacterium tuberculosis
[3] = tested on: Mycobacterium tuberculosis (replicating TB); assay type: cell-based
[4] = tested on: strains of TB that are resistant to Rifampin; assay type: cell-based; conditions: Mycobacterium tuberculosis
[5] = tested on: strains of TB that are resistant to Isoniazid; assay type: cell-based; conditions: Mycobacterium tuberculosis

For `O=C1C=Cc2nocc2/C1=C1/Nc2ccccc2C1=O` [Example P1, 4-(3-oxoindolin-2-ylidene)benzo[c]isoxazol-5(4H)-one], the “MIC LORA” value [1] was 1.833 µg/mL (≈ 6.94 µM), the MIC [2] was 0.148 µg/mL (≈ 0.56 µM) and the “MIC MABA” value [3] was 0.15 µg/mL (≈ 0.568 µM). For the same compound, the MIC [4] was 0.239 µg/mL (≈ 0.904 µM) and the MIC [5] was 0.138 µg/mL (≈ 0.522 µM).
